Source: publication PMC7272617 (Scientific Reports, 2020)
Converted amounts (≈) assume the structure as drawn. Where a SMILES comes first, the peptide text is derived from it.

Columns and labels:
P. aeruginosa ATCC 27853 [1] = test: Salt sensitivity: MIC in the presence of physiological salts; format: cell-based, Pseudomonas aeruginosa
Protocol: The antimicrobial activity of the peptides was determined against both Gram-positive and -negative bacteria including 14 MDR P. aeruginosa clinical isolates from Bhumibol Adulyadej Hospital (Tables 1 and 3). The minimal inhibitory concentration (MIC) of each peptide was measured according to a modification of the National Committee for Clinical Laboratory Standards (NCCLS) broth microdilution method as previously described. Briefly, bacterial cells in mid-log phase were cultured in Müeller-Hinton broth (MHB) and then diluted to 10^7 CFU/ml. Fifty microliters of 2-fold serially diluted peptides, with concentrations ranging from 0.98 to 250 μg/ml in 0.01% (vol/vol) acetic acid and 0.2% (wt/vol) bovine serum albumin (BSA, Sigma), were added to each well of sterile 96-well plates, followed by 50 μl of bacterial solution. Plates were incubated at 37 °C for 24 h, and MICs were defined as the lowest concentration of peptide that prevented visible turbidity. Cultures without peptides and uninoculated MHB were employed as positive and negative controls, respectively. Colony count assays were performed to determine the minimal bactericidal concentrations (MBCs) for determination of time-killing activity. As previously described, a 50 μl aliquot from each non-turbid well identified in the MIC determination experiment was spread on agar plates. MBCs were defined as the lowest concentration of peptides where no colony growth was observed on agar plates after 24 h incubation at 37 °C.
To test the effect of salts on the antibacterial activity of PA-13, the mid-logarithmic phase (10^7 CFU/ml) of P. aeruginosa ATCC 27853 was exposed to different concentrations of PA-13 in the presence of different physiological salts: 150 mM NaCl; 4.5 mM KCl; 1 mM MgCl2; 6 µM NH4Cl; 8 µM ZnCl2; 4 µM FeCl3; […][22]. After these treatments, the MICs were determined as described above.

[2] = system: MDR P. aeruginosa clinical isolate No.13; conditions: MDR clinical isolate No.13, 24 h
[3] = system: MDR P. aeruginosa isolates; test: MIC against all tested MDR P. aeruginosa isolates; format: cell-based, Pseudomonas aeruginosa; conditions: times higher than ciprofloxacin
P. aeruginosa ATCC 27853 [4] = test: Time-killing kinetics; format: cell-based, Pseudomonas aeruginosa
Protocol: The bacterial killing kinetics of PA-13 was assessed by evaluating the time course to kill suspensions of P. aeruginosa ATCC 27853 as described previously. […] Plates were incubated at 37 °C to determine the number of CFU after 24 h; the assays were performed in triplicate.

[5] = system: Staphylococcus epidermidis ATCC 12228; conditions: ATCC 12228, 24 h
P. aeruginosa ATCC 27853 [6] = test: Transmission electron microscopy (TEM); format: cell-based, Pseudomonas aeruginosa; conditions: 0.5 × MIC, 2 h; result in words
Protocol: The bacterial cells were treated and prepared with the same conditions as previously described in SEM[8]. The bacterial pellets were washed twice with PBS and post-fixed with 1% osmium tetroxide in PBS for 2 h, after overnight fixing with 2.5% glutaraldehyde. The fixed bacterial cells were washed twice with PBS, followed by dehydration for 15 min in a graded ethanol series (50%, 70%, 90%, and 100%). After placing in absolute acetone for 20 min, these samples were transferred to a mixture of absolute acetone and epoxy resin (1:1 and 1:3) for 1 h each, followed by transfer to pure epoxy resin and held overnight. Ultrathin sections were cut with a glass knife on an ultramicrotome, and post-stained with uranyl acetate and lead citrate. Specimens were observed using a transmission electron microscope (Hitachi HT7700, Japan).

[7] = system: all Gram-positive strains; test: Mean MIC and therapeutic index, Gram-positive strains; format: cell-based; conditions: 5 Gram-positive strains of Table 3
[8] = system: MDR P. aeruginosa clinical isolate No.11; conditions: MDR clinical isolate No.11, 24 h
[9] = system: Vibrio cholera O1 Inaba DMST 16261; conditions: MHB, 37 °C, 24 h
[10] = system: human red blood cells (hRBCs); test: Hemolytic activity, hemoglobin release
Protocol: Hemolytic activity of the peptides was assayed against human red blood cells (hRBCs) by measuring the amount of hemoglobin released after treatment. The hRBCs, freshly collected from a healthy volunteer in polycarbonate tubes containing heparin, were washed three times in sterile phosphate buffered saline (PBS) and centrifuged at 2,000 × g for 5 min or until the supernatant became clear. […] After 1 h of incubation at 37 °C, intact hRBCs were pelleted by centrifugation at 2,000 × g for 10 min. The supernatant was transferred to a new 96-well plate and the release of hemoglobin was monitored by measurement of absorbance at 405 nm using a Multiskan FC microplate reader. The hRBCs in PBS only (ODBlank) and in 0.1% Triton X-100 (ODTriton X-100) were employed as negative (0% hemolysis) and positive (100% hemolysis) controls, respectively. The percentage of hemolysis was calculated according to the following equation: %Hemolysis=(ODSample−ABlank)/(ODTritonX−100−ODBlank)×100

`CC[C@H](C)[C@H](NC(=O)[C@H](CCCNC(=N)N)NC(=O)[C@H](CCCCN)NC(=O)[C@H](C)NC(=O)[C@@H](NC(=O)[C@@H](N)CCCCN)[C@@H](C)CC)C(=O)N[C@@H](Cc1c[nH]c2ccccc12)C(=O)N[C@@H](CCCCN)C(=O)N[C@H](C(=O)N[C@@H](CC(C)C)C(=O)N[C@@H](CCCNC(=N)N)C(=O)N[C@@H](CCCNC(=N)N)C(=O)N[C@@H](CCCNC(=N)N)C(N)=O)[C@@H](C)CC` [PA-13] (H-KIAKRIWKILRRR-NH2; N-terminus assumed) showed an MIC in the presence of FeCl3 (P. aeruginosa ATCC 27853 [1]; 4 µM FeCl3, unit inferred) of 3.91 µg/mL, an MIC in the presence of NH4Cl (P. aeruginosa ATCC 27853 [1]; 6 µM NH4Cl, unit inferred) of 3.91 µg/mL and an MIC in the presence of ZnCl2 (P. aeruginosa ATCC 27853 [1]; 8 µM ZnCl2, unit inferred) of 3.91 µg/mL. The MIC in the presence of MgCl2 (P. aeruginosa ATCC 27853 [1]; 1 mM MgCl2, unit inferred) was 31.2 µg/mL, the “increase of MIC in the presence of K+” value (P. aeruginosa ATCC 27853 [1]; 4.5 mM KCl versus control) was 2 fold and the MIC in the presence of KCl (P. aeruginosa ATCC 27853 [1]; 4.5 mM KCl, unit inferred) was 7.81 µg/mL. For the same compound, the MIC in the presence of NaCl (P. aeruginosa ATCC 27853 [1]; 150 mM NaCl, unit inferred) was 31.2 µg/mL, the MIC in the presence of CaCl2 (P. aeruginosa ATCC 27853 [1]; […] CaCl2, unit inferred) was 3.91 µg/mL and the MIC, control (P. aeruginosa ATCC 27853 [1]; absence of physiological salts, unit inferred) was 3.91 µg/mL. The MIC [2] was 15.63 µg/mL (≈ 9 µM), the “antimicrobial activity relative to ciprofloxacin” value [3] was 8-64 times and the “P. aeruginosa count within 30 min at MIC” value (P. aeruginosa ATCC 27853 [4]) was “approximately 10^4 CFU/ml”. For the same compound, the “time to complete killing (no regrowth)” value (P. aeruginosa ATCC 27853 [4]; at MBC) was no more than 4 h, the “time to eradicate most bacteria” value (P. aeruginosa ATCC 27853 [4]; at MIC (and MBC)) was no more than 2 h and the “regrowth after 24 h treatment” value (P. aeruginosa ATCC 27853 [4]; at MIC, result in words) was “regrowth was observed”. For the same compound, the “P. aeruginosa count within 30 min at MBC” value (P. aeruginosa ATCC 27853 [4]; start 10^7 CFU/ml, MBC (7.81 μg/ml), MHB, 37 °C) was ~10^2 CFU/ml, the MIC [5] was 3.91 µg/mL (≈ 2.25 µM) and the “membrane integrity and intracellular alterations (TEM)” value (P. aeruginosa ATCC 27853 [6]) was “disrupted cell membrane with visible pores and leakage of cellular contents”. For the same compound, the “GM (Gr.+ strains): geometric mean of MIC values from all Gram-positive strains” value [7] was 67.19 µg/mL, the MIC [8] was 7.81 µg/mL (≈ 4.5 µM) and the MIC [9] was 31.25 µg/mL (≈ 18 µM). The “hemolytic activity at the MIC” value [10] was “less than 2%”.
